Test results: the Kinase Knowledgebase extract (Sharma et al. 2016)

Legend:
[1] = biological target: MAPK14 (human) (UniProt Q16539); experiment: Inhibition of TNF-alpha Production from LPS Stimulated PBMC
[2] = biological target: MAPK14 (human) (UniProt Q16539); experiment: Inhibition of IL-1beta Production from LPS Stimulated PBMC
[3] = biological target: MAPK14 (human) (UniProt Q16539); experiment: Inhibition of IL-1 beta Release from LPS Stimulated Whole Blood Culture; conditions: blood cells
[4] = biological target: MAPK14 (human) (UniProt Q16539); experiment: Inhibition of TNF-alpha Release in LPS Stimulated Whole Blood Culture; conditions: blood cells
[5] = biological target: MAPK14 (human) (UniProt Q16539); experiment: Inhibition of MAPK14 Kinase Activity

Sequence of MAPK14 (human) (Q16539 whole entry, looked up): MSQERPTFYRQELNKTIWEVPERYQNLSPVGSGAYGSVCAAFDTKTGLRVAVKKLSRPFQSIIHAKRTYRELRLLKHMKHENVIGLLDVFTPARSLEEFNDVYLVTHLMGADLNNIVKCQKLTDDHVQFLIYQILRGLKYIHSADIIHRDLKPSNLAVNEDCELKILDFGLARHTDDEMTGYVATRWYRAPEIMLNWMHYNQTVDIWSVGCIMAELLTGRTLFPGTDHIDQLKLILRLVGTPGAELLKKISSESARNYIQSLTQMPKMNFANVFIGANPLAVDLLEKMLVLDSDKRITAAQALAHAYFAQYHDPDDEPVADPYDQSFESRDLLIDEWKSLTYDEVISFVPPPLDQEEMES

## COc1ccc(CNc2cc(-c3[nH]c(SC)nc3-c3ccc(F)cc3)ccn2)cc1
[1]
  IC50: 0.64 µM
[2]
  IC50: 0.056 µM

## C[S+]([O-])c1ccc(CSc2nc(-c3ccc(F)cc3)c(-c3ccnc(F)c3)[nH]2)cc1 (centres undefined)
[1]
  IC50: 6.9 µM
[2]
  IC50: 2.45 µM

## CSc1nc(-c2ccc(F)cc2)c(-c2ccnc(NCc3ccc(C)cc3)c2)[nH]1
[1]
  IC50: 0.67 µM
[2]
  IC50: 0.085 µM
[3]
  IC50: 22.3 µM
[4]
  IC50: 17.3 µM

## CSc1nc(-c2ccc(F)cc2)c(-c2cc[nH]c(=O)c2)[nH]1
[1]
  IC50: 3.1 µM
[2]
  IC50: 0.5 µM

## CSc1nc(-c2ccc(F)cc2)c(-c2ccnc(Cl)c2)[nH]1
[1]
  IC50: 2.2 µM
[2]
  IC50: 0.35 µM

## Fc1ccc(-c2nc(SCc3ccccc3)[nH]c2-c2ccnc(Cl)c2)cc1
[1]
  IC50: 60 µM
[2]
  IC50: 1.8 µM

## Fc1ccc(-c2nc(SCc3ccccc3)[nH]c2-c2ccnc(NCc3ccccc3)c2)cc1
[1]
  IC50: 3.2 µM
[2]
  IC50: 0.2 µM

## C[S+]([O-])c1ccc(CSc2nc(-c3ccc(F)cc3)c(-c3ccnc(Cl)c3)[nH]2)cc1 (centres undefined)
[1]
  IC50: 12 µM
[2]
  IC50: 2.1 µM

## CSc1nc(-c2ccc(F)cc2)c(-c2ccnc(NCc3ccc(Cl)cc3)c2)[nH]1
[1]
  IC50: 0.5 µM
[2]
  IC50: 0.15 µM
[3]
  IC50: 13.3 µM
[4]
  IC50: 14.8 µM

## CSc1nc(-c2ccc(F)cc2)c(-c2ccnc(NCCc3ccccc3)c2)[nH]1
[1]
  IC50: 0.35 µM
[2]
  IC50: 0.031 µM
[3]
  IC50: 17.1 µM
[4]
  IC50: 14.9 µM

## CC(Nc1cc(-c2[nH]c(SCc3ccccc3)nc2-c2ccc(F)cc2)ccn1)c1ccccc1 (centres undefined)
[1]
  IC50: 2.7 µM
[2]
  IC50: 0.045 µM

## C[S+]([O-])c1ccc(CSc2nc(-c3ccc(F)cc3)c(-c3ccnc(NCc4ccccc4)c3)[nH]2)cc1 (centres undefined)
[1]
  IC50: 2 µM
[2]
  IC50: 0.47 µM

## Fc1ccc(-c2nc(SCc3ccccc3)[nH]c2-c2ccnc(F)c2)cc1
[1]
  IC50: 40.5 µM
[2]
  IC50: 2.9 µM

## CSc1nc(-c2ccc(F)cc2)c(-c2ccnc(NCc3ccc(Cl)c(Cl)c3)c2)[nH]1
[1]
  IC50: 0.72 µM
[2]
  IC50: 0.23 µM

## CSc1nc(-c2ccc(F)cc2)c(-c2ccnc(NCc3ccccc3)c2)[nH]1
[1]
  IC50: 0.63 µM
[5]
  IC50: 0.65 µM
[2]
  IC50: 0.108 µM

## CSc1nc(-c2ccc(F)cc2)c(-c2ccnc(OC(C)C)c2)[nH]1
[1]
  IC50: 4.6 µM
[2]
  IC50: 2.7 µM
[3]
  IC50: 2.2 µM
[4]
  IC50: 7.2 µM

## CC(Nc1cc(-c2[nH]c(SCc3ccc([S+](C)[O-])cc3)nc2-c2ccc(F)cc2)ccn1)c1ccccc1 (centres undefined)
[1]
  IC50: 0.91 µM
[5]
  IC50: 0.27 µM
[2]
  IC50: 0.04 µM
[3]
  IC50: 15.7 µM
[4]
  IC50: 10 µM

## CSc1nc(-c2ccc(F)cc2)c(-c2ccnc(F)c2)[nH]1
[1]
  IC50: 2.8 µM
[2]
  IC50: 0.3 µM

## COc1ccc(CNc2cc(-c3[nH]c(SCc4ccccc4)nc3-c3ccc(F)cc3)ccn2)cc1
[1]
  IC50: 21 µM
[2]
  IC50: 0.18 µM

## COc1cc(-c2[nH]c(SC)nc2-c2ccc(F)cc2)ccn1
[1]
  IC50: 1.9 µM
[2]
  IC50: 0.15 µM

## CSc1nc(-c2ccc(F)cc2)c(-c2ccnc(Nc3ccccc3)c2)[nH]1
[1]
  IC50: 0.34 µM
[2]
  IC50: 0.03 µM
